This note sets out measurements from US9556222B2, “A-ring epoxidized triterpenoid-based anti-inflammation modulators and methods of use thereof” (priority 2012, dated 2017).

In assay [1] the test system is IFNγ-induced NO production in RAW264.7 mouse macrophages. The assay can be described thus: Suppression of IFNγ-induced NO production in RAW264.7 (Griess, normalized to WST-1 viability). The class given is cell-based. The conditions noted are these: RAW264.7, 2 h pre-treatment (0-200 nM dose range), IFNγ 24 h, normalized to cell viability. On the procedure:
On the next day, cells were pre-treated with DMSO or drug (0-200 nM dose range) for 2 hours, and then treated with recombinant mouse IFNγ (R&D Systems) for 24 hours. Nitric Oxide concentration in media was determined using the Griess reagent system (Promega). Cell viability was determined using WST-1 reagent (Roche). IC50 values were determined based on the suppression of IFNγ induced Nitric Oxide production normalized to cell viability.
In general terms: Nitrite, measured by Griess reagent, commonly stands in for NO production.

The test system is the same in assay [2]. The assay can be described thus: Nitric oxide production and cell viability protocol used for TX64343 (RAW264.7, Griess, Cell Titer-Glo). The assay is classed as cell-based. The following applies: slightly different assay procedure: DMEM+10% FBS, 0-30 μM or 0-3 μM dose range, IFNγ 24 h. On the procedure:
On the next day, cells were pre-treated with DMSO or drug (0-30 μM or 0-3 μM dose range) for 2 hours, and then treated with IFNγ for 24 hours. Nitric Oxide concentration in media was determined using the Griess reagent system (Promega). Cell viability was determined using Cell Titer-Glo (Promega). IC50 values were determined based on the suppression of IFNγ induced Nitric Oxide production.

Molecules are shown by their SMILES.

Regarding `COC(=O)[C@]12CCC(C)(C)C[C@H]1[C@H]1C(=O)C=C3[C@@]4(C)[C@H]5O[C@@]5(C#N)C(=O)C(C)(C)[C@@H]4CC[C@@]3(C)[C@]1(C)CC2` [TX63098], the IC50 (in general, the concentration at which inhibition is half-maximal) in assay [1] was determined as 2.3 nM.

With `CCNC(=O)[C@]12CCC(C)(C)C[C@H]1[C@H]1C(=O)C=C3[C@@]4(C)[C@H]5O[C@@]5(C#N)C(=O)C(C)(C)[C@@H]4CC[C@@]3(C)[C@]1(C)CC2` [TX63100], the IC50 in assay [1] amounted to 23 nM.

On to `CC1(C)CC[C@]2(C(=O)NCC(F)(F)F)CC[C@]3(C)[C@H](C(=O)C=C4[C@@]5(C)[C@H]6O[C@@]6(C#N)C(=O)C(C)(C)[C@@H]5CC[C@]43C)[C@@H]2C1` [TX63158], for which the IC50 in assay [1] came out at 16 nM.

As for `CC1(C)CC[C@]2(C(=O)O)CC[C@]3(C)[C@H](C(=O)C=C4[C@@]5(C)[C@H]6O[C@@]6(C#N)C(=O)C(C)(C)[C@@H]5CC[C@]43C)[C@@H]2C1` [TX63160], the half-inhibitory concentration (IC50) in assay [1] is 30 nM.

Turning to `COC(=O)[C@]12CCC(C)(C)C[C@H]1[C@H]1C(=O)C[C@@H]3[C@@]4(C)[C@H]5O[C@@]5(C#N)C(=O)C(C)(C)[C@@H]4CC[C@@]3(C)[C@]1(C)CC2` [TX63210], the concentration for half-maximal inhibition (IC50) in assay [1] amounted to 44 nM.

Take `COC(=O)[C@]12CCC(C)(C)C[C@H]1[C@H]1C(=O)C=C3[C@@]4(C)[C@H]5O[C@H]5C(=O)C(C)(C)[C@@H]4CC[C@@]3(C)[C@]1(C)CC2` [TX63211]: the IC50 in assay [1] is greater than 200 nM.

For `COC(=O)[C@]12CCC(C)(C)C[C@H]1[C@H]1C(=O)C=C3[C@]4(C)[C@@H](CC[C@@]3(C)[C@]1(C)CC2)C(C)(C)C(=O)[C@@]1(C#N)O[C@@H]41` [TX63212], in assay [1], the IC50 was 1.6 nM.

For the compound `CC1(C)CC[C@]2(C(=O)NCC(F)(F)F)CC[C@]3(C)[C@H](C(=O)C[C@@H]4[C@@]5(C)[C@H]6O[C@@]6(C#N)C(=O)C(C)(C)[C@@H]5CC[C@]43C)[C@@H]2C1` [TX63241], in assay [1], the 50% inhibitory concentration (IC50) is greater than 200 nM.

As for `COC(=O)[C@]12CCC(C)(C)C[C@H]1[C@H]1C(=O)C=C3[C@]4(C)[C@@H](CC[C@@]3(C)[C@]1(C)CC2)C(C)(C)C(=O)[C@]1(C(N)=O)O[C@@H]14` [TX63315], the IC50 in assay [1] is greater than 200 nM.

On to `COC(=O)[C@]12CCC(C)(C)C[C@H]1[C@H]1C(=O)C=C3[C@@]4(C)[C@H]5O[C@@]5(Br)C(=O)C(C)(C)[C@@H]4CC[C@@]3(C)[C@]1(C)CC2` [TX63392], for which the IC50 in assay [1] is greater than 200 nM.

With `CC1(C)CC[C@]2(CO)CC[C@]3(C)[C@H](C(=O)C=C4[C@@]5(C)[C@H]6O[C@@]6(C#N)C(=O)C(C)(C)[C@@H]5CC[C@]43C)[C@@H]2C1` [TX63537], in assay [1], the half-maximal inhibitory concentration (IC50) was 1.5 nM.

For the compound `CC[C@]12CCC(C)(C)C[C@H]1[C@H]1C(=O)C=C3[C@@]4(C)[C@H]5O[C@@]5(C#N)C(=O)C(C)(C)[C@@H]4CC[C@@]3(C)[C@]1(C)CC2` [TX63539], the IC50 in assay [1] was determined as 14 nM.

In the case of `CC1(C)CC[C@]2(NC(=O)C(C)(F)F)CC[C@]3(C)[C@H](C(=O)C=C4[C@@]5(C)[C@H]6O[C@@]6(C#N)C(=O)C(C)(C)[C@@H]5CC[C@]43C)[C@@H]2C1` [TX63647], the 50% inhibitory concentration (IC50) in assay [1] was 15 nM.

Take `COC(=O)N[C@]12CCC(C)(C)C[C@H]1[C@H]1C(=O)C=C3[C@@]4(C)[C@H]5O[C@@]5(C#N)C(=O)C(C)(C)[C@@H]4CC[C@@]3(C)[C@]1(C)CC2` [TX63654]: in assay [1], the half-maximal inhibitory concentration (IC50) was determined as 6.5 nM.

On to `COC(=O)[C@]12CCC(C)(C)C[C@H]1[C@H]1C(=O)C[C@@H]3[C@@]4(C)[C@H]5O[C@@]5(C#N)C(=O)[C@@H](C)[C@@H]4CC[C@@]3(C)[C@]1(C)CC2` [TX63813], for which the half-maximal inhibitory concentration (IC50) in assay [1] worked out at 6.6 nM.

Regarding `CN(C)C(=O)N[C@]12CCC(C)(C)C[C@H]1[C@H]1C(=O)C=C3[C@@]4(C)[C@H]5O[C@@]5(C#N)C(=O)C(C)(C)[C@@H]4CC[C@@]3(C)[C@]1(C)CC2` [TX63924], the IC50 in assay [1] was determined as 45 nM.

As to `C[C@@H]1C(=O)[C@]2(C#N)O[C@@H]2[C@]2(C)C3=CC(=O)[C@@H]4[C@@H]5CC(C)(C)CC[C@]5(NC(=O)C(C)(F)F)CC[C@@]4(C)[C@]3(C)CC[C@@H]12` [TX63946], the half-inhibitory concentration (IC50) in assay [1] was 0.6 nM.

For `Cc1nnc([C@]23CCC(C)(C)C[C@H]2[C@H]2C(=O)C=C4[C@@]5(C)[C@H]6O[C@@]6(C#N)C(=O)C(C)(C)[C@@H]5CC[C@@]4(C)[C@]2(C)CC3)o1` [TX63947], the IC50 in assay [1] was determined as 2.5 nM.

Take `CC1(C)CC[C@]2(C(=O)n3ccnc3)CC[C@]3(C)[C@H](C(=O)C=C4[C@@]5(C)[C@H]6O[C@@]6(C#N)C(=O)C(C)(C)[C@@H]5CC[C@]43C)[C@@H]2C1` [TX63960]: the concentration for half-maximal inhibition (IC50) in assay [1] was determined as 2.9 nM.

Turning to `CCNC(=O)[C@]12CCC(C)(C)C[C@H]1[C@H]1C(=O)C=C3[C@@]4(C)[C@H]5O[C@@]5(C#N)C(=O)[C@@H](C)[C@@H]4CC[C@@]3(C)[C@]1(C)CC2` [TX63962], the IC50 in assay [1] came out at 1.1 nM.

As to `CC1(C)CC[C@]2(CO)CC[C@]3(C)[C@H](C(=O)C[C@@H]4[C@@]5(C)[C@H]6O[C@@]6(C#N)C(=O)C(C)(C)[C@@H]5CC[C@]43C)[C@@H]2C1` [TX63966], the half-inhibitory concentration (IC50) in assay [1] is 52 nM.

As for `CC1(C)CC[C@]2(C#N)CC[C@]3(C)[C@H](C(=O)C[C@@H]4[C@@]5(C)[C@H]6O[C@@]6(C#N)C(=O)C(C)(C)[C@@H]5CC[C@]43C)[C@@H]2C1` [TX63967], in assay [1], the IC50 came out at 24 nM.

For the compound `CNC(=O)CC[C@]12CCC(C)(C)C[C@H]1[C@H]1C(=O)C=C3[C@@]4(C)[C@H]5O[C@@]5(C#N)C(=O)C(C)(C)[C@@H]4CC[C@@]3(C)[C@]1(C)CC2` [TX64343], half-maximal inhibition in assay [2] (IC50) was put at 20.1 nM.
